# According to patent publication US10479784B2, “Substituted pyrazin-2-amines as inhibitors of ATR kinase” (Vertex Pharmaceuticals Incorporated, priority 2008, dated 2019):
# Target: full-length ATR (Homo sapiens (Human), UniProt Q13535)
# Assay: ATR Inhibition Assay (radioactive-phosphate incorporation)
# Assay type: biochemical
# Conditions: read-out: ATR Ki
# Method in brief: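 Full-length human ATR (5 nM) was assayed at 25 °C in 50 mM Tris/HCl pH 7.5, 10 mM MgCl2, 1 mM DTT, with 10 μM [γ-33P]ATP and 800 μM peptide, after 10-min compound preincubation. Reactions were stopped after 24 h, captured on phosphocellulose and counted; Ki(app) came from non-linear regression of initial rates.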
# Chain of full-length ATR (Q13535 whole entry): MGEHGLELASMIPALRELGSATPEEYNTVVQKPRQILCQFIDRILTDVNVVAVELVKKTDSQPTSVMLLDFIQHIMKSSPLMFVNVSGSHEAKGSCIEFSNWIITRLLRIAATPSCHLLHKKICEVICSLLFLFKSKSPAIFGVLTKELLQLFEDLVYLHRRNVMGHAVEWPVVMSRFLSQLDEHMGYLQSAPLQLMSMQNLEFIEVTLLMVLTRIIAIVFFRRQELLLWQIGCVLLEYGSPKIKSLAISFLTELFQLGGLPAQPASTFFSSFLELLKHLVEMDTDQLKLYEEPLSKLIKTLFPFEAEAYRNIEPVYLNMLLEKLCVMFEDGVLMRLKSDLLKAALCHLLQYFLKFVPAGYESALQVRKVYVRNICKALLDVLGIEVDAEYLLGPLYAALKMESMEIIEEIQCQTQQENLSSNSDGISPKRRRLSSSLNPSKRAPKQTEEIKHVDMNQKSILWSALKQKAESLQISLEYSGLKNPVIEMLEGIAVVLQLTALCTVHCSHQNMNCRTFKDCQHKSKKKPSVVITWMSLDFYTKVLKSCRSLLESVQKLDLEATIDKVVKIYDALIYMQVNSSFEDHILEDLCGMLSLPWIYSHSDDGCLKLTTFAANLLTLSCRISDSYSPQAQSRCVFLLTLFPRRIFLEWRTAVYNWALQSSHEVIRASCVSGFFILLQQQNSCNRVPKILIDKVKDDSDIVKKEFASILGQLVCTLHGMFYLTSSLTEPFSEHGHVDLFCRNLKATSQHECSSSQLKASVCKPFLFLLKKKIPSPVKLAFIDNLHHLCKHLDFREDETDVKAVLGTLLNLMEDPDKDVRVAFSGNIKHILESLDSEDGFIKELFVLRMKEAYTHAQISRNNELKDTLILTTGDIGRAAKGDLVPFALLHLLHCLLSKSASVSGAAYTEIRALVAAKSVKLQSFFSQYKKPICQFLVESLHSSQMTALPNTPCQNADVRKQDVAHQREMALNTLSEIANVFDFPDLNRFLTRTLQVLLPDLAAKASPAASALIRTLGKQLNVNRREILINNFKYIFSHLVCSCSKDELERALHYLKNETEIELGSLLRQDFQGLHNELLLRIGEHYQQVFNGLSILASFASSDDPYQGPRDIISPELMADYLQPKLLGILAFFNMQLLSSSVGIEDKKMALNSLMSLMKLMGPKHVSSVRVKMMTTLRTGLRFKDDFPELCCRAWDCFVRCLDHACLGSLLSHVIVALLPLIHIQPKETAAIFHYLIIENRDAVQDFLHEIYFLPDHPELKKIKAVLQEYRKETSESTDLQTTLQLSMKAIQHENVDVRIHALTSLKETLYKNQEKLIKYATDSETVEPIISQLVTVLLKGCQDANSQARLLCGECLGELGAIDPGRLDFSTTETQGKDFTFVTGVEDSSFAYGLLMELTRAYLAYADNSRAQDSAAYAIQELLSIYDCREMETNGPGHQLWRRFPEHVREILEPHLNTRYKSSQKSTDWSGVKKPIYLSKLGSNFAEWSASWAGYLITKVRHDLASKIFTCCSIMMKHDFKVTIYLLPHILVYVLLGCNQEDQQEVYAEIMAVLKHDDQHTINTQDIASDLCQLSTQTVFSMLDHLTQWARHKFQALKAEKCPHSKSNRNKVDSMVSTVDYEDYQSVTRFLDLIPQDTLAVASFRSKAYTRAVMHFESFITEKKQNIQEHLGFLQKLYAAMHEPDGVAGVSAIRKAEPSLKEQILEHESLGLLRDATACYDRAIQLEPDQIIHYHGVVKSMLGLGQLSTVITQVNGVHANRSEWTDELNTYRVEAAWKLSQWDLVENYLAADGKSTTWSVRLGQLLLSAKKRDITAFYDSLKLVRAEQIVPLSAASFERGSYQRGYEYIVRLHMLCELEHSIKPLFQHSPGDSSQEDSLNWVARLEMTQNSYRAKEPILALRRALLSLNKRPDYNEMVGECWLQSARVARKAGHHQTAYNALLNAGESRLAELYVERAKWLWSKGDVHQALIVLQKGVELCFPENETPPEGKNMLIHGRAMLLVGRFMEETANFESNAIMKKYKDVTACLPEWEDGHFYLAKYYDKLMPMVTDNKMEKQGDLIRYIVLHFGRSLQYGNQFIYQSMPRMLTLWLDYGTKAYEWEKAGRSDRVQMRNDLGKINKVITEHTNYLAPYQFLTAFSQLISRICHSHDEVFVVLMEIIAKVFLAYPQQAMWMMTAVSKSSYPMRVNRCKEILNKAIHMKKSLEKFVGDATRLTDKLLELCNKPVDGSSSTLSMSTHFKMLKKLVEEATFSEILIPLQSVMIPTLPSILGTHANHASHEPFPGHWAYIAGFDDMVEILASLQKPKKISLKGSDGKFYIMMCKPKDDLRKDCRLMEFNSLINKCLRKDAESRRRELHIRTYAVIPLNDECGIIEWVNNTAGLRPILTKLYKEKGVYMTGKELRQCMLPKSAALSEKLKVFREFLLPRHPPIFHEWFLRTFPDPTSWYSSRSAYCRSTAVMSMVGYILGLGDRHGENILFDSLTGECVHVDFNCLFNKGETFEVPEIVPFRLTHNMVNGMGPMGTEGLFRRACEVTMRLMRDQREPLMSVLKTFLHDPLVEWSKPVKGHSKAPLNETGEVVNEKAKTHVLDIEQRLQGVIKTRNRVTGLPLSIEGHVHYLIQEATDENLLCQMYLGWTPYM
row,Compound,Ki
1,"COC(=O)c1ccccc1-c1cnc(N)c(-c2nnc(-c3ccccc3)o2)n1 [IA-105, methyl 2-[5-amino-6-(5-phenyl-1,3,4-oxadiazol-2-yl)pyrazin-2-yl]benzoate]",100 to 5000 nM
2,"CCc1cc(-c2cnc(N)c(-c3nnc(-c4ccc(CNC)cc4)o3)n2)ccc1S(=O)(=O)C(C)C [IA-326, 5-(3-ethyl-4-isopropylsulfonyl-phenyl)-3-[5-[4-(methylaminomethyl)phenyl]-1,3,4-oxadiazol-2-yl]pyrazin-2-amine]",≤ 10 nM
3,"CCC(C)S(=O)(=O)c1ccc(-c2cnc(N)c(-c3nnc(-c4ccc(CNC)cc4)o3)n2)cc1 (centres unmarked) [IA-313, 3-[5-[4-(methylaminomethyl)phenyl]-1,3,4-oxadiazol-2-yl]-5-(4-sec-butylsulfonylphenyl)pyrazin-2-amine]",≤ 10 nM
4,"CN(C)C(=O)c1ccc(-c2cnc(N)c(-c3nnc(-c4ccccc4OCCCO)o3)n2)cc1 [IA-284, 4-[5-amino-6-[5-[2-(3-hydroxypropoxy)phenyl]-1,3,4-oxadiazol-2-yl]pyrazin-2-yl]-N,N-dimethyl-benzamide]",≤ 10 nM
5,"CC(C)S(=O)(=O)c1ccc(-c2cnc(N)c(-c3nnc(CCCCN)o3)n2)cc1 [IA-92, 3-[5-(4-aminobutyl)-1,3,4-oxadiazol-2-yl]-5-(4-isopropylsulfonylphenyl) pyrazin-2-amine]",100 to 5000 nM
6,"CNCc1ccc(-c2nnc(-c3nc(-c4ccc(S(=O)(=O)C(C)C)cc4)cnc3N)o2)c(C)c1 [IA-166, 5-(4-isopropylsulfonylphenyl)-3-[5-[2-methyl-4-(methylaminomethyl)phenyl]-1,3,4-oxadiazol-2-yl]pyrazin-2-amine]",≤ 10 nM
7,"CNCc1ccc(-c2nnc(-c3nc(-c4ccc(S(=O)(=O)C(C)C)cc4C(F)F)cnc3N)o2)cc1 [IA-322, 5-[2-(difluoromethyl)-4-isopropylsulfonyl-phenyl]-3-[5-[4-(methylaminomethyl)phenyl]-1,3,4-oxadiazol-2-yl]pyrazin-2-amine]",≤ 10 nM
8,"CC(=O)c1ccc(-c2cnc(N)c(-c3nnc(-c4ccccc4)o3)n2)cc1 [IA-110, 1-[4-[5-amino-6-(5-phenyl-1,3,4-oxadiazol-2-yl)pyrazin-2-yl]phenyl]ethanone]",10 to 100 nM
9,"CN(C)C(=O)c1ccc(-c2cnc(N)c(-c3nnc(-c4cscn4)o3)n2)cc1 [IA-180, 4-[5-amino-6-(5-thiazol-4-yl-1,3,4-oxadiazol-2-yl)pyrazin-2-yl]-N,N-dimethyl-benzamide]",10 to 100 nM
10,"CC(C)S(=O)(=O)c1ccc(-c2cnc(N)c(-c3nnc(-c4cccc(C#N)c4)o3)n2)cc1 [IA-187, 3-[5-[3-amino-6-(4-isopropylsulfonylphenyl)pyrazin-2-yl]-1,3,4-oxadiazol-2-yl]benzonitrile]",10 to 100 nM
11,"CC(C)S(=O)(=O)c1ccc(-c2cnc(N)c(-c3nnc(N4CCC(CN)CC4)o3)n2)cc1 [IA-138, 3-[5-[4-(aminomethyl)-1-piperidyl]-1,3,4-oxadiazol-2-yl]-5-(4-isopropylsulfonylphenyl)pyrazin-2-amine]",10 to 100 nM
12,Cn1c(NC(=O)c2nc(-c3ccc(C(=O)N4CCCNCC4)cc3)cnc2N)nc2ccccc21 [Compound V-7],100 to 5000 nM
13,"CN(C)C(=O)c1ccc(-c2cnc(N)c(-c3nnc(NCc4ccccc4)o3)n2)cc1 [IA-55, 4-(5-amino-6-(5-(benzylamino)-1,3,4-oxadiazol-2-yl)pyrazin-2-yl)-N,N-dimethylbenzamide]",100 to 5000 nM
14,CC(C)c1ccccc1-c1cnc(N)c(-c2nnc(-c3ccccc3)o2)n1 [IA-56],100 to 5000 nM
15,"Cc1ccsc1-c1nnc(-c2nc(-c3ccccc3[S+](C)[O-])cnc2N)o1 (centres unmarked) [IA-179, 5-(2-methylsulfinylphenyl)-3-[5-(3-methyl-2-thienyl)-1,3,4-oxadiazol-2-yl]pyrazin-2-amine]",≤ 10 nM
16,"CCS(=O)(=O)c1ccccc1-c1cnc(N)c(-c2nnc(-c3ccccc3)o2)n1 [IA-203, 5-(2-ethylsulfonylphenyl)-3-(5-phenyl-1,3,4-oxadiazol-2-yl)pyrazin-2-amine]",100 to 5000 nM

row,Compound,Ki
1,"CN(C)C(=O)c1ccc(-c2cnc(N)c(-c3nnc(-c4ccccc4)o3)n2)c(C(F)F)c1 [IA-126, 4-[5-amino-6-(5-phenyl-1,3,4-oxadiazol-2-yl)pyrazin-2-yl]-3-(difluoromethyl)-N,N-dimethyl-benzamide]",≤ 10 nM
2,"CNCc1csc(-c2nnc(-c3nc(-c4ccc(S(=O)(=O)C(C)C)cc4)cnc3N)o2)c1 [IA-226, 5-(4-isopropylsulfonylphenyl)-3-[5-[4-(methylaminomethyl)-2-thienyl]-1,3,4-oxadiazol-2-yl]pyrazin-2-amine]",≤ 10 nM
3,"Nc1ncc(-c2ccccc2F)nc1C(=O)Nc1ccccc1 [Compound I-14, 3-amino-6-(2-fluorophenyl)-N-phenylpyrazine-2-carboxamide]",100 to 5000 nM
4,"CN(C)C(=O)c1ccc(-c2cnc(N)c(-c3nnc(Nc4ccccc4C#N)s3)n2)cc1 [IVA-3, 4-[5-amino-6-[5-(2-cyanoanilino)-1,3,4-thiadiazol-2-yl]pyrazin-2-yl]-N,N-dimethyl-benzamide]",100 to 5000 nM
5,Nc1ncc(-c2ccc(C(=O)N3CCOCC3)cc2)nc1-c1nnc(-c2ccccc2)o1 [IA-13],10 to 100 nM
6,"CC(C)NCc1ccc(-c2cc(-c3nc(-c4ccc(S(=O)(=O)C(C)C)cc4)cnc3N)on2)cc1 [IIA-8, 3-[3-[4-[(isopropylamino)methyl]phenyl]isoxazol-5-yl]-5-(4-isopropylsulfonylphenyl)pyrazin-2-amine]",≤ 10 nM
7,"Nc1ncc(-c2cccc(C(=O)N3CCC(CO)CC3)c2)nc1C(=O)Nc1ccccc1 [Compound I-50, 3-amino-6-(3-(4-(hydroxymethyl)piperidine-1-carbonyl)phenyl)-N-phenylpyrazine-2-carboxamide]",100 to 5000 nM
8,Nc1ncc(-c2cc(F)c(C(=O)N3CCCNCC3)c(F)c2)nc1-c1nnc(-c2ccccc2)o1 [IA-38],10 to 100 nM
9,"Nc1ncc(-c2cccnc2)nc1C(=O)Nc1ccccc1 [Compound I-85, 3-amino-N-phenyl-6-(pyridin-3-yl)pyrazine-2-carboxamide]",10 to 100 nM
10,CC(=O)Nc1cccc(-c2cnc(N)c(-c3nnc(-c4ccccc4)o3)n2)c1 [IA-66],10 to 100 nM
11,"Nc1ncc(-c2ccccc2)nc1C(=O)Nc1ccccc1 [Compound I-15, 3-amino-N,6-diphenylpyrazine-2-carboxamide]",100 to 5000 nM
12,"NCc1cccc(-c2nnc(-c3nc(-c4cccnc4)cnc3N)[nH]2)c1 [Compound I-143, 3-(5-(3-(aminomethyl)phenyl)-4H-1,2,4-triazol-3-yl)-5-(pyridin-3-yl)pyrazin-2-amine]",10 to 100 nM
13,Nc1ncc(-c2ccc(C(=O)N3CCCNCC3)cc2)nc1C(=O)Nc1cc2ccccc2[nH]1 [Compound V-26],100 to 5000 nM
14,"CC(C)S(=O)(=O)c1ccc(-c2cnc(N)c(-c3nnc(CCN)o3)n2)cc1 [IA-214, 3-[5-(2-aminoethyl)-1,3,4-oxadiazol-2-yl]-5-(4-isopropylsulfonylphenyl)pyrazin-2-amine]",10 to 100 nM
15,"Nc1ncc(-c2cncnc2)nc1C(=O)Nc1ccccc1 [Compound I-40, 3-amino-N-phenyl-6-(pyrimidin-5-yl)pyrazine-2-carboxamide]",100 to 5000 nM
16,"CC(C)S(=O)(=O)c1ccc(-c2cnc(N)c(-c3nnc(-c4ccc(C5CCCN5)cc4)o3)n2)cc1 (centres unmarked) [IA-102, 5-(4-isopropylsulfonylphenyl)-3-[5-(4-pyrrolidin-2-ylphenyl)-1,3,4-oxadiazol-2-yl]pyrazin-2-amine]",≤ 10 nM
